Experimental data as given in US6069235A, “Method for carbohydrate engineering of glycoproteins” (Monsanto Company, priority 1994, dated 2000).

How the values were obtained:
[1] = test system: CHO-K1 line 2.14 cells secreting hsCD2; experiment: Quantitative assay of hsCD2 expression level in line 2.14 cells cultured with NB-DNJ; format: cell-based, Chinese hamster; conditions: 0.5-2 mM NB-DNJ
Method: For the expression of hsCD2, the Xba I-Bam H1 fragment was sub-cloned into the polylinker of pEE6.hcmv-GS (Bebbington and Hentschel, 1987; Davis et al., 1990). The expression construct (20 μg) was transfected with calcium phosphate into CHO-K1 cells and methionine sulfoximine-resistant clones were selected as described previously (Davis et al., 1990). To detect expression the conventional solid-phase, radioactive inhibition binding assay (Barclay and Ward, 1982) was used. This utilized human sCD2 domain 1 expressed as a fusion protein as described for rat CD2 domain 1 (Driscoll et al., 1991) adsorbed onto vinyl microtitre plates as a binding target and monitored inhibition of the binding of the anti-human CD2 mAb, X3 mAb to the plate; the bound mAb was detected with [I^125 ]-labelled rabbit anti-mouse F(ab'). For large scale production the highest-expressing cell line (line 2.14) was grown to confluence in cell factories (Nunc) and sodium butyrate was then added to a final concentration of 2 mM. The cultures were then left for a further 3-4 weeks prior to harvesting.
In initial optimization tests with NB-DNJ, 2×500 cm^2 flasks (Nunc) were seeded with line 2.14 cells in 75 ml glutamine-free medium GMEM-S (Gibco Ltd, Glasgow, U.K.) 10% Fetal Calf Serum (FCS) containing NB-DNJ at 0 mM, 0.5 mM, 1 mM, 1.5 mM or 2 mM. […]

glucosidase I = molecular target: T1, glucosidase I (Cricetulus griseus, UniProt A0A9J7K0I4); experiment: Endo H sensitivity of hsCD2 secreted by transfected CHO-K1 cells (line 2.14) cultured with NB-DNJ; format: cell-based, Chinese hamster
T1 construct: endogenous in cells; host or cells: CHO-K1, transfected line 2.14 (the transfected gene is hsCD2, not glucosidase I)
T1 sequence (A0A9J7K0I4 1-834): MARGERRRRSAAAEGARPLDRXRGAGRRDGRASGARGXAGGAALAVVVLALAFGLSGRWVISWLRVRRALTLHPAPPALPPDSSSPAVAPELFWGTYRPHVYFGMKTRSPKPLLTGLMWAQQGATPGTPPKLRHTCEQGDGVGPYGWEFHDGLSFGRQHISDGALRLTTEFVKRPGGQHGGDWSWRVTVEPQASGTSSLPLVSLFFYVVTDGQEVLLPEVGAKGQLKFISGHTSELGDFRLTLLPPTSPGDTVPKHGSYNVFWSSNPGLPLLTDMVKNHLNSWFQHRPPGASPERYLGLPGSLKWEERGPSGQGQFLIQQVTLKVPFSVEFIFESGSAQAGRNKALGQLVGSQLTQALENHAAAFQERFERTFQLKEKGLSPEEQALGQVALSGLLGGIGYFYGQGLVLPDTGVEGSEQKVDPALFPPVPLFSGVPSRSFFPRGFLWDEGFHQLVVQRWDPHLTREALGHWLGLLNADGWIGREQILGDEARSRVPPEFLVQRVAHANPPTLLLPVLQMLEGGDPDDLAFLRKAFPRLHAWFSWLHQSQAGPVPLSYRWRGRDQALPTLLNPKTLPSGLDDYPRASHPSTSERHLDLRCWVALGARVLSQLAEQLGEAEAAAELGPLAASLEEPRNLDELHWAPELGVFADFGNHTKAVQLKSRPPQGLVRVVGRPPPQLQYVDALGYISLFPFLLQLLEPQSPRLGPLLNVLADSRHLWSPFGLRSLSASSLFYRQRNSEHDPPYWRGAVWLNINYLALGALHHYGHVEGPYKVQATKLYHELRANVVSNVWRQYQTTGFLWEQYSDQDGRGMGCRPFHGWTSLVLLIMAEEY
Method: In initial optimization tests with NB-DNJ, 2×500 cm^2 flasks (Nunc) were seeded with line 2.14 cells in 75 ml glutamine-free medium GMEM-S (Gibco Ltd, Glasgow, U.K.) 10% Fetal Calf Serum (FCS) containing NB-DNJ at 0 mM, 0.5 mM, 1 mM, 1.5 mM or 2 mM. After 6 days 100 mls of CB2, 10% FCS containing sodium butyrate to give a final concentration of 2 mM and NB-DNJ at 0, 0.5 mM, 1 mM, 1.5 mM or 2 mM was added. Ten days after the addition of the butyrate, 0.5 ml samples of the supernatant were taken for comparison of secretion levels. The cultures were left for a total of 15 days before harvesting the supernatants. When large amounts of endo H treated hsCD2 were required for crystallization, the cells were grown to confluence in cell factories as described above and NB-DNJ was added with the sodium butyrate to a final concentration of 1.5 mM. These cultures were also left for a further 3-4 weeks prior to harvesting.
For analysis of endo H sensitivity after preparation of the hsCD2 in the presence of various concentrations of NB-DNJ, 10 μg aliquots of the purified glycoproteins were incubated with 4, 20 or 100 mU/ml endo H-(Boehringer Mannheim) in 30 μl of 100 mM sodium acetate, pH 5.2. One unit (U) of endo H is the enzyme activity which hydrolyzes one micromole […] of dansyl-Asn-(GlcNAc)2 -(Man)5 within one minute at 37° C., pH 5.5. After incubation overnight at 370 the digested samples were boiled in 1% SDS under reducing conditions prior to electrophoresis in 15% SDS-PAGE gels. For large-scale endo H treatment of hsCD2 for crystallization tests, 4 mgs of the purified glycoprotein was concentrated to 1-2 mg/ml in 0.1 M sodium acetate, pH 5.2, and then digested with 100 mU/ml endo H overnight at 370. […] The eluting protein was determined to be essentially free of contaminating hsCD2 bearing non-endo H sensitive oligosaccharides by SDS-PAGE on a 15% acrylamide gel. […]

CCCCN1C[C@H](O)[C@@H](O)[C@H](O)[C@H]1CO [NB-DNJ, N-butyl deoxynojirimycin]
reduction in expression of hsCD2 [1]: three- to four-fold reduction in expression | oligosaccharides of hsCD2 converted to endo H sensitive structures (glucosidase I; N-butyldeoxynojirimycin added to cultures of non-mutant CHO cells): > 85% | inhibition of glucosidase I (judged by endo H sensitivity of hsCD2) (glucosidase I; NB-DNJ 1.5 mM in culture of line 2.14 CHO cells): complete | hsCD2 remaining endo H resistant (densitometric analysis of gel) (glucosidase I; highest concentration of NB-DNJ (2 mM)): approximately 15%
